{"source": "paper PMC4735555", "about": "“Crystal structure of the N-myristoylated lipopeptide-bound MHC class I complex” (Nature Communications, 2016)", "key": {"Mamu-B*098 [1]": {"test_system": "Mamu-B*098", "assay": "Biolayer interferometry binding to β2m-linked Mamu-B*098", "parameters": "species or system rhesus macaque", "conditions": "Octet RED96; biotinylated β2m-linked Mamu-B*098; lipopeptide 10 μM, 45 min, then 30 min without; 20 mM Tris-HCl pH 7.5, 150 mM NaCl, 2% DMSO; 30 °C; representative of three independent experiments", "description": "Single-chain MHC proteins in which β2m was linked via a Gly-Ser linker (GGGGSGGSGSGGGSS) to the ectodomain of either Mamu-B*098 or Mamu-A*02, followed by a biotinylation sequence peptide (LHHILDAQKMVWNHR), were also expressed in E. coli and were purified in a similar manner to the trimer complex of Mamu-B*098, β2m and C14nef5. The β2m-linked Mamu-B*098 protein was refolded without C14nef5, whereas the β2m-linked Mamu-A*02 protein was refolded in the presence of the YY9 peptide (YTSGPGIRY). These recombinant proteins (3 mg) were biotinylated by being incubated for 12 h at 20 °C with 2 μg of BirA enzyme (Sigma-Aldrich, St Louis, MO) in a biotinylation buffer containing 100 mM Tris-HCl pH 8.0, 5 mM MgCl2, 4.5 mM ATP and 4 mM D-biotin, and were purified by size-exclusion chromatography.\nThe binding of ligands to MHC class I molecules was analysed using the Octet RED96 system equipped with a streptavidin-conjugated biosensor (Pall ForteBio, Menlo Park, CA) according to the manufacturer's instructions. Biotinylated β2m-linked Mamu-B*098 and Mamu-A*02 proteins were immobilized on the sensor tip surface with a signal magnitude of ∼5.0 nm. […] After reference subtraction, binding signals were analysed using the BIAevaluation 3.1 software. […]"}, "Mamu-B*098 [2]": {"test_system": "Mamu-B*098", "assay": "X-ray crystal structure of the Mamu-B*098:C14nef5 complex", "assay_type": "binding, rhesus macaque", "conditions": "crystal structure at 1.76 Å, Mamu-B*098 with Cys167 mutated to Ser, rhesus β2m; PDB 4ZFZ", "description": "Recombinant proteins were prepared as described previously with some modifications. Briefly, DNA constructs encoding the ectodomain of Mamu-B*098 (from Gly1 to Pro276 with the unpaired Cys167 mutated to Ser and a Met-Ala added to the N terminus) and rhesus β2m (from Ile1 to Met99 with a Met-Ala added to the N terminus) were synthesized and cloned into pLM1. The expression plasmids were introduced into the E. coli Rosetta 2 (DE3) pLysS strain (Novagen, Madison, WI) and colonies were inoculated into a Terrific Broth supplemented with 50 μg ml^−1 ampicillin. Isopropyl-β-D-thiogalactoside was added to the culture at a final concentration of 0.5 mM when the OD600 value of the culture reached 0.5. After an additional 6-h culture, bacteria were harvested and lysed in a buffer containing 50 mM Tris-HCl pH 8.0, 1 mM EDTA, 0.1% NaN3, 10 mM dithiothreitol (DTT), 100 mM NaCl, 1% Triton X-100, 1% deoxycholate and 5 mM MgCl2, followed by a treatment with DNase I. After 6 h of stirring, the samples were centrifuged and the pellets were washed twice with a wash buffer containing 50 mM Tris-HCl pH 8.0, 1 mM EDTA, 0.1% NaN3, 1 mM DTT, 100 mM NaCl and 0.5% Triton X-100, and once with a rinse buffer containing 50 mM Tris-HCl pH 8.0, 1 mM EDTA, 0.1% NaN3 and 1 mM DTT. […]"}}, "data": [{"substance": "C14-Gly-Gly-Ala-Ile-Ser [C14nef5, N-myristoylated 5-mer peptide (C14-Gly-Gly-Ala-Ile-Ser; C14nef5) derived from the SIV Nef protein]", "values": [{"measurement": "physical interaction with immobilized Mamu-B*098 (biolayer interferometry)", "setting": "Mamu-B*098 [1]", "result": "demonstrated for Mamu-B*098"}, {"measurement": "electron density in the Ag-binding groove of Mamu-B*098", "setting": "Mamu-B*098 [2]", "result": "Continuous electron density corresponding to C14nef5 was observed in the Ag-binding groove"}]}]}
